What was measured:
Caudate [1] = experiment: Drug uptake in anesthetized cynomolgus monkey brain caudate after 27.5 mins postinjection; type: ADME, organism-based, Macaca fascicularis, Caudate nucleus; settings: in vivo
Pons [2] = experiment: Drug uptake in anesthetized cynomolgus monkey brain pons after 105 mins postinjection; type: ADME, organism-based, Macaca fascicularis; settings: in vivo, 1.75 h
Putamen [3] = experiment: Drug uptake in anesthetized cynomolgus monkey brain putamen after 22.5 mins postinjection; type: ADME, organism-based, Macaca fascicularis; set-up: unit not given here; settings: in vivo, 0.375 h
Thalamus [4] = experiment: Drug uptake in anesthetized cynomolgus monkey brain thalamus after 45 mins postinjection; type: ADME, organism-based, Macaca fascicularis; set-up: unit not given here; settings: in vivo, 0.75 h
[5] = Ratio of drug uptake in caudate to cerebellum in anesthetized cynomolgus monkey after 155 mins postinjection; type: ADME, organism-based, Macaca fascicularis; settings: in vivo
[6] = Drug uptake in anesthetized cynomolgus monkey brain cerebellum after 1.5 mins postinjection; type: ADME, organism-based, Macaca fascicularis; settings: in vivo, 0.025 h
[7] = Ratio of drug uptake in frontal lobe to cerebellum in anesthetized cynomolgus monkey after 135 mins postinjection; type: ADME, organism-based, Macaca fascicularis; settings: in vivo, 2.25 h
[8] = Ratio of drug uptake in occipital lobe to cerebellum in anesthetized cynomolgus monkey after 175 mins postinjection; type: ADME, organism-based, Macaca fascicularis; settings: in vivo
[9] = Drug uptake in anesthetized cynomolgus monkey brain occipital lobe after 35 mins postinjection; type: ADME, organism-based, Macaca fascicularis; settings: in vivo
Pons [10] = experiment: Drug uptake in anesthetized cynomolgus monkey brain pons after 2.5 mins postinjection; type: ADME, organism-based, Macaca fascicularis; settings: in vivo
[11] = Ratio of drug uptake in thalamus to cerebellum in anesthetized cynomolgus monkey after 135 mins postinjection; type: ADME, organism-based, Macaca fascicularis; settings: in vivo, 2.25 h
Caudate [12] = experiment: Drug uptake in anesthetized cynomolgus monkey brain caudate after 235 mins postinjection; type: ADME, organism-based, Macaca fascicularis, Caudate nucleus; settings: in vivo
Pons [13] = experiment: Drug uptake in anesthetized cynomolgus monkey brain pons after 9.5 mins postinjection; type: ADME, organism-based, Macaca fascicularis; settings: in vivo
Pons [14] = experiment: Drug uptake in anesthetized cynomolgus monkey brain pons after 4.5 mins postinjection; type: ADME, organism-based, Macaca fascicularis; settings: in vivo, 0.075 h
[15] = Drug uptake in anesthetized cynomolgus monkey brain frontal lobe after 55 mins postinjection; type: ADME, organism-based, Macaca fascicularis; settings: in vivo
[16] = Drug uptake in anesthetized cynomolgus monkey brain frontal lobe after 235 mins postinjection; type: ADME, organism-based, Macaca fascicularis; settings: in vivo
Pons [17] = experiment: Drug uptake in anesthetized cynomolgus monkey brain pons after 235 mins postinjection; type: ADME, organism-based, Macaca fascicularis; settings: in vivo
Pons [18] = experiment: Drug uptake in anesthetized cynomolgus monkey brain pons after 115 mins postinjection; type: ADME, organism-based, Macaca fascicularis; settings: in vivo
[19] = Drug uptake in anesthetized cynomolgus monkey brain occipital lobe after 65 mins postinjection; type: ADME, organism-based, Macaca fascicularis; settings: in vivo
[20] = Ratio of drug uptake in pons to cerebellum in anesthetized cynomolgus monkey after 0.5 mins postinjection; type: ADME, organism-based, Macaca fascicularis; settings: in vivo
Thalamus [21] = experiment: Drug uptake in anesthetized cynomolgus monkey brain thalamus after 135 mins postinjection; type: ADME, organism-based, Macaca fascicularis; set-up: unit not given here; settings: in vivo, 2.25 h
Medulla [22] = experiment: Drug uptake in anesthetized cynomolgus monkey brain medulla after 3.5 mins postinjection; type: ADME, organism-based, Macaca fascicularis; settings: in vivo
Pons [23] = experiment: Drug uptake in anesthetized cynomolgus monkey brain pons after 22.5 mins postinjection; type: ADME, organism-based, Macaca fascicularis; settings: in vivo, 0.375 h
Thalamus [24] = experiment: Drug uptake in anesthetized cynomolgus monkey brain thalamus after 195 mins postinjection; type: ADME, organism-based, Macaca fascicularis; settings: in vivo, 3.25 h
[25] = Ratio of drug uptake in pons to cerebellum in anesthetized cynomolgus monkey after 18.5 mins postinjection; type: ADME, organism-based, Macaca fascicularis; settings: in vivo
Medulla [26] = experiment: Drug uptake in anesthetized cynomolgus monkey brain medulla after 185 mins postinjection; type: ADME, organism-based, Macaca fascicularis; settings: in vivo
Putamen [27] = experiment: Drug uptake in anesthetized cynomolgus monkey brain putamen after 35 mins postinjection; type: ADME, organism-based, Macaca fascicularis; set-up: unit not given here; settings: in vivo
Caudate [28] = experiment: Drug uptake in anesthetized cynomolgus monkey brain caudate after 205 mins postinjection; type: ADME, organism-based, Macaca fascicularis, Caudate nucleus; settings: in vivo
Medulla [29] = experiment: Drug uptake in anesthetized cynomolgus monkey brain medulla after 105 mins postinjection; type: ADME, organism-based, Macaca fascicularis; settings: in vivo, 1.75 h
Pons [30] = experiment: Drug uptake in anesthetized cynomolgus monkey brain pons after 95 mins postinjection; type: ADME, organism-based, Macaca fascicularis; settings: in vivo
[31] = Drug uptake in anesthetized cynomolgus monkey brain occipital lobe after 115 mins postinjection; type: ADME, organism-based, Macaca fascicularis; settings: in vivo
Pons [32] = experiment: Drug uptake in anesthetized cynomolgus monkey brain pons after 225 mins postinjection; type: ADME, organism-based, Macaca fascicularis; settings: in vivo, 3.75 h
[33] = Drug uptake in anesthetized cynomolgus monkey brain cerebellum after 27.5 mins postinjection; type: ADME, organism-based, Macaca fascicularis; settings: in vivo
Medulla [34] = experiment: Drug uptake in anesthetized cynomolgus monkey brain medulla after 195 mins postinjection; type: ADME, organism-based, Macaca fascicularis; settings: in vivo, 3.25 h
Medulla [35] = experiment: Drug uptake in anesthetized cynomolgus monkey brain medulla after 55 mins postinjection; type: ADME, organism-based, Macaca fascicularis; settings: in vivo
Putamen [36] = experiment: Drug uptake in anesthetized cynomolgus monkey brain putamen after 3.5 mins postinjection; type: ADME, organism-based, Macaca fascicularis; settings: in vivo
[37] = Ratio of drug uptake in pons to cerebellum in anesthetized cynomolgus monkey after 215 mins postinjection; type: ADME, organism-based, Macaca fascicularis; settings: in vivo
[38] = Drug uptake in anesthetized cynomolgus monkey brain cerebellum after 18.5 mins postinjection; type: ADME, organism-based, Macaca fascicularis; settings: in vivo
[39] = Drug uptake in anesthetized cynomolgus monkey brain occipital lobe after 22.5 mins postinjection; type: ADME, organism-based, Macaca fascicularis; settings: in vivo, 0.375 h
Thalamus [40] = experiment: Drug uptake in anesthetized cynomolgus monkey brain thalamus after 9.5 mins postinjection; type: ADME, organism-based, Macaca fascicularis; set-up: unit not given here; settings: in vivo
[41] = Drug uptake in anesthetized cynomolgus monkey brain frontal lobe after 105 mins postinjection; type: ADME, organism-based, Macaca fascicularis; settings: in vivo, 1.75 h
[42] = Drug uptake in anesthetized cynomolgus monkey brain frontal lobe after 15.5 mins postinjection; type: ADME, organism-based, Macaca fascicularis; settings: in vivo
Pons [43] = experiment: Drug uptake in anesthetized cynomolgus monkey brain pons after 6.5 mins postinjection; type: ADME, organism-based, Macaca fascicularis; settings: in vivo
[44] = Ratio of drug uptake in thalamus to cerebellum in anesthetized cynomolgus monkey after 195 mins postinjection; type: ADME, organism-based, Macaca fascicularis; settings: in vivo, 3.25 h
Thalamus [45] = experiment: Drug uptake in anesthetized cynomolgus monkey brain thalamus after 27.5 mins postinjection; type: ADME, organism-based, Macaca fascicularis; set-up: unit not given here; settings: in vivo
Pons [46] = experiment: Drug uptake in anesthetized cynomolgus monkey brain pons after 165 mins postinjection; type: ADME, organism-based, Macaca fascicularis; settings: in vivo, 2.75 h
[47] = Drug uptake in anesthetized cynomolgus monkey brain occipital lobe after 165 mins postinjection; type: ADME, organism-based, Macaca fascicularis; settings: in vivo, 2.75 h
[48] = Ratio of drug uptake in caudate to cerebellum in anesthetized cynomolgus monkey after 9.5 mins postinjection; type: ADME, organism-based, Macaca fascicularis; settings: in vivo
[49] = Drug uptake in anesthetized cynomolgus monkey brain occipital lobe after 1.5 mins postinjection; type: ADME, organism-based, Macaca fascicularis; settings: in vivo, 0.025 h
Caudate [50] = experiment: Drug uptake in anesthetized cynomolgus monkey brain caudate after 165 mins postinjection; type: ADME, organism-based, Macaca fascicularis, Caudate nucleus; settings: in vivo, 2.75 h
Pons [51] = experiment: Drug uptake in anesthetized cynomolgus monkey brain pons after 1.5 mins postinjection; type: ADME, organism-based, Macaca fascicularis; settings: in vivo, 0.025 h
Medulla [52] = experiment: Drug uptake in anesthetized cynomolgus monkey brain medulla after 65 mins postinjection; type: ADME, organism-based, Macaca fascicularis; settings: in vivo
Thalamus [53] = experiment: Drug uptake in anesthetized cynomolgus monkey brain thalamus after 65 mins postinjection; type: ADME, organism-based, Macaca fascicularis; set-up: unit not given here; settings: in vivo
[54] = Drug uptake in anesthetized cynomolgus monkey brain cerebellum after 6.5 mins postinjection; type: ADME, organism-based, Macaca fascicularis; settings: in vivo
[55] = Drug uptake in anesthetized cynomolgus monkey brain occipital lobe after 145 mins postinjection; type: ADME, organism-based, Macaca fascicularis; settings: in vivo
[56] = Ratio of drug uptake in midbrain to cerebellum in anesthetized cynomolgus monkey after 95 mins postinjection; type: ADME, organism-based, Macaca fascicularis; settings: in vivo
Putamen [57] = experiment: Drug uptake in anesthetized cynomolgus monkey brain putamen after 45 mins postinjection; type: ADME, organism-based, Macaca fascicularis; set-up: unit not given here; settings: in vivo, 0.75 h
[58] = Ratio of drug uptake in midbrain to cerebellum in anesthetized cynomolgus monkey after 125 mins postinjection; type: ADME, organism-based, Macaca fascicularis; settings: in vivo
Putamen [59] = experiment: Drug uptake in anesthetized cynomolgus monkey brain putamen after 135 mins postinjection; type: ADME, organism-based, Macaca fascicularis; settings: in vivo, 2.25 h
Thalamus [60] = experiment: Drug uptake in anesthetized cynomolgus monkey brain thalamus after 225 mins postinjection; type: ADME, organism-based, Macaca fascicularis; set-up: unit not given here; settings: in vivo, 3.75 h
Medulla [61] = experiment: Drug uptake in anesthetized cynomolgus monkey brain medulla after 75 mins postinjection; type: ADME, organism-based, Macaca fascicularis; settings: in vivo, 1.25 h
Midbrain = experiment: Drug uptake in anesthetized cynomolgus monkey brain midbrain after 1.5 mins postinjection; type: ADME, organism-based, Macaca fascicularis; set-up: unit not given here; settings: in vivo, 0.025 h
[62] = Drug uptake in anesthetized cynomolgus monkey brain occipital lobe after 27.5 mins postinjection; type: ADME, organism-based, Macaca fascicularis; settings: in vivo
Thalamus [63] = experiment: Drug uptake in anesthetized cynomolgus monkey brain thalamus after 3.5 mins postinjection; type: ADME, organism-based, Macaca fascicularis; set-up: unit not given here; settings: in vivo
Putamen [64] = experiment: Drug uptake in anesthetized cynomolgus monkey brain putamen after 9.5 mins postinjection; type: ADME, organism-based, Macaca fascicularis; set-up: unit not given here; settings: in vivo
[65] = Ratio of drug uptake in putamen to cerebellum in anesthetized cynomolgus monkey after 35 mins postinjection; type: ADME, organism-based, Macaca fascicularis; settings: in vivo
Thalamus [66] = experiment: Drug uptake in anesthetized cynomolgus monkey brain thalamus after 155 mins postinjection; type: ADME, organism-based, Macaca fascicularis; set-up: unit not given here; settings: in vivo
[67] = Ratio of drug uptake in midbrain to cerebellum in anesthetized cynomolgus monkey after 85 mins postinjection; type: ADME, organism-based, Macaca fascicularis; settings: in vivo

O=C(OCCC[18F])C1C2CCC(CC1c1cccc(/C=C\I)c1)N2 (stereo not drawn)
Drug uptake (Caudate [1]): 3.68 | Drug uptake (Pons [2]): 4.01 | Drug uptake (Putamen [3]): 4.71 | Drug uptake (Thalamus [4]): 4.84 | Ratio [5]: 1.4 | Drug uptake [6]: 0.27 | Ratio [7]: 0.9 | Ratio [8]: 1.1 | Drug uptake [9]: 4.01 | Drug uptake (Pons [10]): 0.95 | Ratio [11]: 1.5 | Drug uptake (Caudate [12]): 2.41 | Drug uptake (Pons [13]): 3.47 | Drug uptake (Pons [14]): 1.92 | Drug uptake [15]: 2.82 | Drug uptake [16]: 1.78 | Drug uptake (Pons [17]): 3.31 | Drug uptake (Pons [18]): 3.98 | Drug uptake [19]: 3.86 | Ratio [20]: 1.7 | Drug uptake (Thalamus [21]): 4.02 | Drug uptake (Medulla [22]): 2.2 | Drug uptake (Pons [23]): 4.1 | Drug uptake (Thalamus [24]): 3.2 | Ratio [25]: 0.9 | Drug uptake (Medulla [26]): 3.93 | Drug uptake (Putamen [27]): 4.99 | Drug uptake (Caudate [28]): 2.65 | Drug uptake (Medulla [29]): 4.34 | Drug uptake (Pons [30]): 4.41 | Drug uptake [31]: 3.09 | Drug uptake (Pons [32]): 3.11 | Drug uptake [33]: 4.8 | Drug uptake (Medulla [34]): 3.78 | Drug uptake (Medulla [35]): 5.06 | Drug uptake (Putamen [36]): 1.59 | Ratio [37]: 1.5 | Drug uptake [38]: 4.74 | Drug uptake [39]: 3.88 | Drug uptake (Thalamus [40]): 3.45 | Drug uptake [41]: 2.58 | Drug uptake [42]: 2.42 | Drug uptake (Pons [43]): 2.85 | Ratio [44]: 1.5 | Drug uptake (Thalamus [45]): 4.66 | Drug uptake (Pons [46]): 3.73 | Drug uptake [47]: 2.59 | Ratio [48]: 0.6 | Drug uptake [49]: 0.19 | Drug uptake (Caudate [50]): 3.04 | Drug uptake (Pons [51]): 0.21 | Drug uptake (Medulla [52]): 4.96 | Drug uptake (Thalamus [53]): 4.79 | Drug uptake [54]: 3.91 | Drug uptake [55]: 2.82 | Ratio [56]: 1.4 | Drug uptake (Putamen [57]): 5.05 | Ratio [58]: 1.6 | Drug uptake (Putamen [59]): 4.16 | Drug uptake (Thalamus [60]): 2.83 | Drug uptake (Medulla [61]): 5.16 | Drug uptake (Midbrain): 0.32 | Drug uptake [62]: 4 | Drug uptake (Thalamus [63]): 1.44 | Drug uptake (Putamen [64]): 3.75 | Ratio [65]: 1.1 | Drug uptake (Thalamus [66]): 3.73 | Ratio [67]: 1.4
